Where a name gives a salt, the structure may show the parent alone.
Experiments:
Assay type in all cases: cell-based
EGFR del/T790M (PC9-DRH) = molecular target: T1, EGFR del/T790M (PC9-DRH) (Homo sapiens, UniProt P00533, DEL746-750/T790M); test: pEGFR Y1068 ELISA assay, PC9-DRH cells; settings: inhibition of phosphorylation of EGFR at Tyr1068; PC9-DRH cells (dacomitinib resistant); 2 hr compound incubation
T1 construct: detects endogenous levels of phospho-EGF Receptor (Tyr1068) protein; endogenous in cells; host or cells: PC9-DRH (dacomitinib-resistant derivative of PC9, generated in house)
Method: The PathScan® Phospho-EGF Receptor (Tyr1068) Sandwich ELISA Kit is a solid phase sandwich enzyme-linked immunosorbent assay (ELISA) that detects endogenous levels of phospho-EGF Receptor (Tyr1068) protein. […] NCI-H3255 cells were licensed from NCI. […] All cells were cultured according to ATCC recommendations. A549, NCI-H1975, PC9, and NCI-H3255 cells were grown in RPMI media (Invitrogen, Carlsbad, Calif.) supplemented with 10% FBS (Sigma, St Louis, Mo.), and with 1% Penn/Strep (Invitrogen).
Each compound was prepared as a DMSO stock solution (10 mM). Compounds were tested in duplicate on each plate, with an 11-point serial dilution curve (1:3 dilution). Compound treatment (50 μL) was added from the compound dilution plate to the cell plate. […] Plates were then incubated for 2 hr at 37° C., 5% CO2. […] The wash was then flicked off and ice-cold lysis buffer was added to the cells (50 μL/well). The plate was shaken for 20-30 min at 4° C. to completely lyse the cells. Sample diluent (50 μL/well) was added to the ELISA plate, and the lysate (50 μL) was diluted into the sample diluent in each well of the ELISA plate. Plates were sealed and incubated overnight at 4° C. with shaking. The next day, wells were washed four times with 1× Wash Buffer; plates were taped on lint-free paper after the final wash prior to adding Add Detection Antibody (green, 100 μL/well) to each well and incubating for 1 hr at 37° C. After incubation, wells were washed as described. HRP-Linked secondary antibody (red, 100 μL/well) was added to each well and incubated for 30 min at 37° C. After incubation, the wells were washed as described. TMB Substrate (100 μL/well) was added to each well and the plate incubated for 10 min at 37° C. or 30 min at rt maximum. Stop Solution (100 μL/well) was added to each well at the end of the incubation and plates were shaken gently for a few seconds. […] Data were analyzed using a four-parameter fit in Microsoft Excel.

[1] = molecular target: T2, EGFR wildtype, endogenous (A549) (Homo sapiens, UniProt P00533); test: pEGFR Y1068 ELISA assay, A549 cells; settings: inhibition of phosphorylation of EGFR at Tyr1068; A549 NSCLC cells; 2 hr compound incubation, then stimulated 10 min with EGF (40 ng/mL)
T2 construct: A549 (EGFR wildtype, endogenous); host or cells: A549 (stimulated with EGF)
Method: (§1) Phosphorylation of EGFR at Y1068 was measured by PathScan® Phospho-EGF Receptor (Try1068) Sandwich ELISA kit (#7240, Cell Signaling Technology®, Danvers, Mass.). The PathScan® Phospho-EGF Receptor (Tyr1068) Sandwich ELISA Kit is a solid phase sandwich enzyme-linked immunosorbent assay (ELISA) that detects endogenous levels of phospho-EGF Receptor (Tyr1068) protein. […] All cells were cultured according to ATCC recommendations. A549, NCI-H1975, PC9, and NCI-H3255 cells were grown in RPMI media (Invitrogen, Carlsbad, Calif.) supplemented with 10% FBS (Sigma, St Louis, Mo.), and with 1% Penn/Strep (Invitrogen). PC9-DRH cells were grown in RPMI with 10% FBS and 1 μM dacomitinib.
(§2) Cells were plated at 40,000/well in complete culture media (50 μL/well) on the bottom of clear tissue culture treated microtiter plates (#3595, Corning Inc, Corning, N.Y.) and allowed to adhere overnight at 37° C., 5% CO2. The following day, compound dilution plates were prepared in 96 well clear V-bottom 0.5 mL polypropylene block plates (#3956, Corning, Inc). Each compound was prepared as a DMSO stock solution (10 mM). Compounds were tested in duplicate on each plate, with an 11-point serial dilution curve (1:3 dilution). Compound treatment (50 μL) was added from the compound dilution plate to the cell plate. […] Plates were then incubated for 2 hr at 37° C., 5% CO2. For A549 (EGFR wildtype) assay, cells were plated in full-serum (10%) media for 24 hr prior to compound treatment; cells were treated in full serum media as described and then stimulated for 10 min with EGF (40 ng/mL/starvation media, Invitrogen). Immediately prior to the end of the incubation, ice-cold lysis buffer was prepared (1× Cell Lysis Buffer (#9803, Cell Signaling Technology), 1 mM sodium orthovanadate (Na3VO4, #96508, Sigma), 1 mM phenylmethanesulfonyl fluoride (PMSF, 52332, CalBiochem/EMD Chemicals), complete Mini EDTA-free Protease Inhibitor Cocktail Tablet (1 tablet/10 mL, #11836170001, Roche, Indianapolis, Ind.), and PhosSTOP Phosphatase Inhibitor Cocktail Tablet (1 tablet/10 mL, #04906837001, Roche) in pure water. At the end of 2 hr, media was flicked off and cells were washed once with ice-cold 1 mM Na3VO4 in PBS (100 μL/well, Invitrogen). The wash was then flicked off and ice-cold lysis buffer was added to the cells (50 μL/well). The plate was shaken for 20-30 min at 4° C. to completely lyse the cells. Sample diluent (50 μL/well) was added to the ELISA plate, and the lysate (50 μL) was diluted into the sample diluent in each well of the ELISA plate. Plates were sealed and incubated overnight at 4° C. with shaking. The next day, wells were washed four times with 1× Wash Buffer; plates were taped on lint-free paper after the final wash prior to adding Add Detection Antibody (green, 100 μL/well) to each well and incubating for 1 hr at 37° C. After incubation, wells were washed as described. HRP-Linked secondary antibody (red, 100 μL/well) was added to each well and incubated for 30 min at 37° C. After incubation, the wells were washed as described. TMB Substrate (100 μL/well) was added to each well and the plate incubated for 10 min at 37° C. or 30 min at rt maximum. Stop Solution (100 μL/well) was added to each well at the end of the incubation and plates were shaken gently for a few seconds. Absorbance was read at 450 nm within 30 min after addition of Stop Solution on a PerkinElmer EnVision Excite Multilabel Reader Method for Absorbance or on a Molecular Devices SpectraMax^384 Reader for absorbance. Data were analyzed using a four-parameter fit in Microsoft Excel.

[2] = molecular target: T3, EGFR L858R+T790M, endogenous (NCI-H1975) (Homo sapiens, UniProt P00533, L858R/T790M); test: pEGFR Y1068 ELISA assay, NCI-H1975 cells; settings: inhibition of phosphorylation of EGFR at Tyr1068; NCI-H1975 NSCLC cells; 2 hr compound incubation
T3 construct: NCI-H1975 (EGFR L858R+T790M, endogenous); host or cells: NCI-H1975
T3 sequence (P00533 25-1210 T790M/L858R): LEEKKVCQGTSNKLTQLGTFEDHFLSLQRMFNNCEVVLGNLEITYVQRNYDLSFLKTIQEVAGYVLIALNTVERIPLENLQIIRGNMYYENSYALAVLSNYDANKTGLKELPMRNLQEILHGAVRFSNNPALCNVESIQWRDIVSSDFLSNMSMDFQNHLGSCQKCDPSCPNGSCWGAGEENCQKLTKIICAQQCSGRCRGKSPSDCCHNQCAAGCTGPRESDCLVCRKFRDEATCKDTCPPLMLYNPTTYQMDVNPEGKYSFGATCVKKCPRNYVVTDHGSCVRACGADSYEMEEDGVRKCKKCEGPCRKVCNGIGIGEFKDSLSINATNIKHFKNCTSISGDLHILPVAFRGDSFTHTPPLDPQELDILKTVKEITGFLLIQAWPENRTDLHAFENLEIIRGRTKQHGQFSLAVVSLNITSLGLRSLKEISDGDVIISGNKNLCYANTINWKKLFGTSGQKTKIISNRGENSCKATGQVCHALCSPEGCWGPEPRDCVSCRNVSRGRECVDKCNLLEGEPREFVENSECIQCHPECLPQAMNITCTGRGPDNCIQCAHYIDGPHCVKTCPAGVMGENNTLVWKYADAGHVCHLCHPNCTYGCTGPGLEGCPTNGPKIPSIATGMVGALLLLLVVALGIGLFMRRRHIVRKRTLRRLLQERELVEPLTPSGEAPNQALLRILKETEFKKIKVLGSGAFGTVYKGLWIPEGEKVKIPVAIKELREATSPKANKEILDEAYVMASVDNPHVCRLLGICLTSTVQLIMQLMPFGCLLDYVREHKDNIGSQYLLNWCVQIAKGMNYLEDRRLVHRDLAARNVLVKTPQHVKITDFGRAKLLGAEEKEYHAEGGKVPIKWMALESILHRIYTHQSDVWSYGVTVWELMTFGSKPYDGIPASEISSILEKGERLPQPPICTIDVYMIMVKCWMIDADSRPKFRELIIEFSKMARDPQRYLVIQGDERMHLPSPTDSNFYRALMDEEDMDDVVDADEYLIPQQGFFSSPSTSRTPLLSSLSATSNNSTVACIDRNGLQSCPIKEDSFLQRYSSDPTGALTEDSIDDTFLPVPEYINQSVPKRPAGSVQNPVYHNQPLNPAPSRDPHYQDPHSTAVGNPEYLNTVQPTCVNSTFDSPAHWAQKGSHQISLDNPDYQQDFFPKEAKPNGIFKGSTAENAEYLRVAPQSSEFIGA
Method: as §1, §2

T2 sequence (P00533 25-1210): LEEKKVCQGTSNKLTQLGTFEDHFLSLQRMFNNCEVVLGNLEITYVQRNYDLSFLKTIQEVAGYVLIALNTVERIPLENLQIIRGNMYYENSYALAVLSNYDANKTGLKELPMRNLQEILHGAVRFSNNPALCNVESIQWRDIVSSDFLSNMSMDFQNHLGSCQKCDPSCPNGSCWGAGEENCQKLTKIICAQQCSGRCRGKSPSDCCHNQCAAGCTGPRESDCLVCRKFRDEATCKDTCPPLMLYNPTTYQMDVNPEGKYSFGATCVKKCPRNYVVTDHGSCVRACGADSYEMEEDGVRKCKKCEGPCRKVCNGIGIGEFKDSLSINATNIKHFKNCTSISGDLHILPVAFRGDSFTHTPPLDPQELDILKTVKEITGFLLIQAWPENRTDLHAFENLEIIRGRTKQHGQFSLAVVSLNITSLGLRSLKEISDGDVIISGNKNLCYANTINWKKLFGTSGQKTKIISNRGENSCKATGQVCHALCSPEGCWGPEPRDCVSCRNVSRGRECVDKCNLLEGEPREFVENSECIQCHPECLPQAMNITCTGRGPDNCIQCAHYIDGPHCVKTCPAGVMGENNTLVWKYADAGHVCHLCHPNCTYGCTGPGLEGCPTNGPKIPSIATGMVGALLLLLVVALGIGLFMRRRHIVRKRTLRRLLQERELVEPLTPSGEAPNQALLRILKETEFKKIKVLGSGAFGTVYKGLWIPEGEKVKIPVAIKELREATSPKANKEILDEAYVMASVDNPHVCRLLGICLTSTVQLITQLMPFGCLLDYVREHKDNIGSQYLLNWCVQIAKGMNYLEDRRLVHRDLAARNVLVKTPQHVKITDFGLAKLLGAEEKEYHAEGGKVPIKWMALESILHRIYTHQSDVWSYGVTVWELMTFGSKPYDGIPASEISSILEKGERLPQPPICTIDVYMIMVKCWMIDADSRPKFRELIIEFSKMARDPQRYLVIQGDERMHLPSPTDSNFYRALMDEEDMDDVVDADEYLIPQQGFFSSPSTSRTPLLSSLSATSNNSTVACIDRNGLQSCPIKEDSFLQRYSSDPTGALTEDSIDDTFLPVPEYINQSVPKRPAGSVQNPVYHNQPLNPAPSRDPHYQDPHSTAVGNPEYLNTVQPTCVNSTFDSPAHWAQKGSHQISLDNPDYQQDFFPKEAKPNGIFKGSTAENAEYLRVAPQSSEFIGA
T1 sequence (P00533 with tags, fused parts or gaps DEL746-750/T790M): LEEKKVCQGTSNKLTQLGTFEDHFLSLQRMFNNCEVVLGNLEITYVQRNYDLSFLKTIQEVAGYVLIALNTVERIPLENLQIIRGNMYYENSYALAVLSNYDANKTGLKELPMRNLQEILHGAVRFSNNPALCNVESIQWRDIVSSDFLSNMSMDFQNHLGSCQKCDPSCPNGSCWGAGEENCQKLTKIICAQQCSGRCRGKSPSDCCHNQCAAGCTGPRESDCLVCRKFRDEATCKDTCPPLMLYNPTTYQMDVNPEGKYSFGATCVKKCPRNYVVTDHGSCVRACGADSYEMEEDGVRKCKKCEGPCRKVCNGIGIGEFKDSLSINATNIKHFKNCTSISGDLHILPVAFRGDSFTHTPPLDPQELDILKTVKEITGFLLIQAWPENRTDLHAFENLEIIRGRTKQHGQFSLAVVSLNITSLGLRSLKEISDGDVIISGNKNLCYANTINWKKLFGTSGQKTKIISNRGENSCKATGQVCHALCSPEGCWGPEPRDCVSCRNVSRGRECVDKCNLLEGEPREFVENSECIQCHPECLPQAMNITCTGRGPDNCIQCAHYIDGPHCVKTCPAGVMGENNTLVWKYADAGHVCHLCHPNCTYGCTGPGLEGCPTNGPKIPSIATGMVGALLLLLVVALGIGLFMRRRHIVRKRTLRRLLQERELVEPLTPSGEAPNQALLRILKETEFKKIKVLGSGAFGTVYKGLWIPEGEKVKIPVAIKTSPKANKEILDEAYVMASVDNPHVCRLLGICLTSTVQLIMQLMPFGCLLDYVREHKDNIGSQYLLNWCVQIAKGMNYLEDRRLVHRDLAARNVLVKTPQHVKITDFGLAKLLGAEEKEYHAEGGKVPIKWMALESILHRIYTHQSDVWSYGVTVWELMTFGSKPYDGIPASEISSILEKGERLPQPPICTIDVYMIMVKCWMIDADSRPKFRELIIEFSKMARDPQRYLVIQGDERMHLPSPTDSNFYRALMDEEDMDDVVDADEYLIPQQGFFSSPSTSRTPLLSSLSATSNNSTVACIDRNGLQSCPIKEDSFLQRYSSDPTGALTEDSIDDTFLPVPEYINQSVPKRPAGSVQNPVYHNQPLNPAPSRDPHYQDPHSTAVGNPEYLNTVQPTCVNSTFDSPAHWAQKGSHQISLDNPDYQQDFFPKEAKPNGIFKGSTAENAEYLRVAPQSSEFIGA

Compound	IC50 (EGFR del/T790M (PC9-DRH))	IC50 [1]	IC50 [2]
C=CC(=O)N1C[C@@H](F)[C@H](Nc2nc(Nc3ccc(N4CCN(C)CC4)cc3)c3ncn(C(C)C)c3n2)C1 (relative stereo) [Example 19, 1-((trans)-3-fluoro-4-((9-isopropyl-6-((4-(4-methylpiperazin-1-yl)phenyl)amino) -9H-purin-2-yl)amino)pyrrolidin-1-yl)prop-2-en-1-one]	25 nM	194 nM	10 nM
C=CC(=O)N1C[C@@H](F)[C@H](Nc2nc(Nc3ccc(N4CCN(C)CC4)cc3)c3ncn(C)c3n2)C1 (relative stereo) [Example 20, 1-((trans)-3-fluoro-4-((9-methyl-6-((4-(4-methylpiperazin-1-yl)phenyl)amino)-9H -purin-2-yl)amino)pyrrolidin-1-yl)prop-2-en-1-one]	2 nM	119 nM	11 nM
C=CC(=O)N1C[C@H]2CN(c3nc(Nc4ccc(N5CCN(C)CC5)cc4)c4ncn(C(C)C)c4n3)C[C@]2(OC)C1 (single isomer, unassigned) [Example 64]	8 nM	127 nM	8 nM
C=CC(=O)Nc1cccc(Oc2nc(Nc3cnn(C)c3)c3ncn(C(C)C)c3n2)c1 [Example 3, N-(3-((9-isopropyl-6-((1-methyl-1H-pyrazol-4-yl)amino)-9H-purin-2-yl)oxy)phenyl)acrylamide trifluoroacetate]	8 nM	162 nM	20 nM
C=CC(=O)N[C@@H]1CN(c2nc(Nc3cn(C4CN(C)C4)nc3OC)c3ncn(C)c3n2)C[C@H]1F [Example 5, N-((3R,4R)-4-fluoro-1-(6-((3-methoxy-1-(1-methylazetidin-3-yl)-1H-pyrazol-4-yl)amino)-9-methyl-9H-purin-2-yl)pyrrolidin-3-yl)acrylamide]	8 nM	546 nM	17 nM
C=CC(=O)NC1(C)CN(c2nc(Nc3cnn(C)c3)c3ncn(C(C)(C)C)c3n2)C1 [Example 8, N-(1-(9-(tert-butyl)-6-((1-methyl-1H-pyrazol-4-yl)amino)-9H-purin-2-yl)-3-methylazetidin-3-yl)acrylamide]	37 nM	4480 nM	97 nM
C=CC(=O)N[C@H]1CCN(c2nc(Nc3ccc(N4CCN(C)CC4)cc3)c3ncn(C(C)(C)C)c3n2)C1 [Example 9, (S)-N-(1-(9-(tert-butyl)-6-((4-(4-methylpiperazin-1-yl)phenyl)amino)-9H-purin-2-yl)pyrrolidin-3-yl)acrylamide]	26 nM	2740 nM	32 nM
C=CC(=O)NC1(C)CN(c2nc(Nc3ccc(N4CCN(C)CC4)cc3)c3ncn(C(C)C)c3n2)C1 [Example 12, N-(1-(9-isopropyl-6-((4-(4-methylpiperazin-1-yl)phenyl)amino)-9H-purin-2-yl)-3-methylazetidin-3-yl)acrylamide]	10 nM	140 nM	6 nM
C=CC(=O)N1C[C@@H]2CN(c3nc(Nc4cnn(C)c4)c4ncn(CC)c4n3)C[C@@H]2C1 [Example 16, 1-((cis)-5-(9-ethyl-6-((1-methyl-1H-pyrazol-4-yl)amino)-9H-purin-2-yl)hexahydropyrrolo[3,4-c]pyrrol-2(1H)-yl)prop-2-en-1-one]	91 nM	507 nM	88 nM
C=CC(=O)N1C[C@@H]2CN(c3nc(Nc4cnn(C)c4C)c4ncn(C(C)C)c4n3)C[C@@H]2C1 [Example 17, 1-((cis)-5-(6-((1,5-dimethyl-1H-pyrazol-4-yl)amino)-9-isopropyl-9H-purin-2-yl)hexahydropyrrolo[3,4-c]pyrrol-2(1H)-yl)prop-2-en-1-one]	2500 nM	≥ 10000 nM	468 nM
C=CC(=O)N1C[C@@H]2CN(c3nc(Nc4ccc(N5CCN(C)CC5)cc4)c4ncn(C(C)(C)C)c4n3)C[C@@H]2C1 [Example 18, 1-((cis)-5-(9-(tert-butyl)-6-((4-(4-methylpiperazin-1-yl)phenyl)amino)-9H-purin-2-yl)hexahydropyrrolo[3,4-c]pyrrol-2(1H)-yl)prop-2-en-1-one]	27 nM	4570 nM	32 nM
C=CC(=O)Nc1cccc(Oc2nc(Nc3ccc(N4CCN(C)CC4)cc3)c3ncn(C(C)C)c3n2)c1 [Example 22, N-(3-((9-isopropyl-6-((4-(4-methylpiperazin-1-yl)phenyl)amino)-9H-purin-2-yl)oxy)phenyl)acrylamide]	9 nM	39 nM	6 nM
C=CC(=O)N1C[C@@H]2CN(c3nc(Nc4cnn(C)c4)c4ncn(C(C)C)c4n3)C[C@@H]2C1 [Example 25, 1-((cis)-5-(9-isopropyl-6-((1-methyl-1H-pyrazol-4-yl)amino)-9H-purin-2-yl)hexahydropyrrolo[3,4-c]pyrrol-2(1H)-yl)prop-2-en-1-one]	6 nM	805 nM	49 nM
C=CC(=O)N1C[C@@H]2CN(c3nc(Nc4ccc(N5CCN(C)CC5)cc4)c4ncn(C)c4n3)C[C@@H]2C1 [Example 33, 1-((cis)-5-(9-methyl-6-((4-(4-methylpiperazin-1-yl)phenyl)amino)-9H-purin-2-yl)hexahydropyrrolo[3,4-c]pyrrol-2(1H)-yl)prop-2-en-1-one]	4 nM	324 nM	18 nM
C=CC(=O)N[C@H]1CCN(c2nc(Nc3ccc(N4CCN(C(C)C)CC4)cc3)c3ncn(C(C)C)c3n2)C1 [Example 36, (S)-N-(1-(9-isopropyl-6-((4-(4-isopropylpiperazin-1-yl)phenyl)amino)-9H-purin-2-yl)pyrrolidin-3-yl)acrylamide]	9 nM	242 nM	8 nM
C=CC(=O)N[C@H]1CCN(c2nc(Nc3ccc(N4CCN(C)CC4)cc3)c3ncn(C)c3n2)C1 [Example 38, (S)-N-(1-(9-methyl-6-((4-(4-methylpiperazin-1-yl)phenyl)amino)-9H-purin-2-yl)pyrrolidin-3-yl)acrylamide]	6 nM	255 nM	15 nM
C=CC(=O)N[C@H]1CCN(c2nc(Nc3ccc(N4CCN(CC)CC4)cc3)c3ncn(C(C)C)c3n2)C1 [Example 40, (S)-N-(1-(6-((4-(4-ethylpiperazin-1-yl)phenyl)amino)-9-isopropyl-9H-purin-2-yl)pyrrolidin-3-yl)acrylamide]	5 nM	74 nM	8 nM
C=CC(=O)NC1(C)CN(c2nc(Nc3cnn(CCN(C)C)c3)c3ncn(C(C)C)c3n2)C1 [Example 42, N-(1-(6-((1-(2-(dimethylamino)ethyl)-1H-pyrazol-4-yl)amino)-9-isopropyl-9H-purin-2-yl)-3-methylazetidin-3-yl)acrylamide]	38 nM	1350 nM	26 nM
C=CC(=O)N[C@H]1CCN(c2nc(Nc3cnn(CCN(C)C)c3)c3ncn(C(C)C)c3n2)C1 [Example 43, (S)-N-(1-(6-((1-(2-(dimethylamino)ethyl)-1H-pyrazol-4-yl)amino)-9-isopropyl-9H -purin-2-yl)pyrrolidin-3-yl)acrylamide]	18 nM	1480 nM	74 nM
C=CC(=O)NC1(C)CN(c2nc(Nc3cnn(C4CCN(C)C4)c3)c3ncn(C(C)C)c3n2)C1 (stereo not shown) [Example 44, N-(1-(9-isopropyl-6-((1-(1-methylpyrrolidin-3-yl)-1H-pyrazol-4-yl)amino)-9H-purin-2-yl)-3-methylazetidin-3-yl)acrylamide]	7 nM	1150 nM	24 nM
C=CC(=O)N[C@@H]1CN(c2nc(Nc3ccc(N4CCN(C)CC4)cc3)c3ncn(C(C)(C)C)c3n2)C[C@H]1F [Example 52, N-((3R,4R)-1-(9-(tert-butyl)-6-((4-(4-methylpiperazin-1-yl)phenyl)amino)-9H-purin-2-yl)-4-fluoropyrrolidin-3-yl)acrylamide]	6 nM	≥ 10000 nM	742 nM
C=CC(=O)NC1(C)CN(c2nc(Nc3cnn(C)c3)c3ncn(CC)c3n2)C1 [Example 56, N-(1-(9-ethyl-6-((1-methyl-1H-pyrazol-4-yl)amino)-9H-purin-2-yl)-3-methylazetidin-3-yl)acrylamide]	2 nM	504 nM	108 nM
C=CC(=O)N[C@@H]1CN(c2nc(Nc3cn(CC(C)O)nc3OC)c3ncn(CC)c3n2)C[C@H]1F (stereo partly drawn) [Example 86, N-((3R,4R)-1-(9-ethyl-6-((1-(2-hydroxypropyl)-3-methoxy-1H-pyrazol-4-yl)amino) -9H-purin-2-yl)-4-fluoropyrrolidin-3-yl)acrylamide]		1220 nM	32 nM
C=CC(=O)N[C@@H]1CN(c2nc(Nc3ccc(N4CCC(N(C)C)CC4)cc3)c3ncn(C(C)C)c3n2)C[C@H]1F [Example 89, N-((3R,4R)-1-(6-((4-(4-(dimethylamino)piperidin-1-yl)phenyl)amino)-9-isopropyl-9H-purin-2-yl)-4-fluoropyrrolidin-3-yl)acrylamide]	3 nM		
C=CC(=O)N[C@@H]1CN(c2nc(Nc3ccc(N4CCC(N(C)C)CC4)cc3OC)c3ncn(C(C)C)c3n2)C[C@H]1F [Example 90, N-((3R,4R)-1-(6-((4-(4-(dimethylamino)piperidin-1-yl)-2-methoxyphenyl)amino)-9-isopropyl-9H-purin-2-yl)-4-fluoropyrrolidin-3-yl)acrylamide]	9 nM		

From patent publication US9290496B2, “Purine derivatives” (PFIZER INC., priority 2013, dated 2016)
